Laboratory results reported in EP1117420B1, “PHARMACEUTICAL COMPOSITIONS BASED ON ALPHA-CYCLODEXTRIN FOR THE ORAL ADMINISTRATION OF LH-RH ANALOGUES” (LABORATOIRE THERAMEX S.A., priority 1998, dated 2000).

What was measured:
LH-RH receptors [1] = target: T1, LH-RH receptors (Rattus norvegicus, UniProt P30969); assay: stimulation of testosterone secretion after oral gavage (plasma testosterone by radioimmunoassay); type: in vivo, Sprague-Dawley rats; set-up: from tissue; host or cells: pituitary of living adult male Sprague-Dawley rats (in vivo); conditions: for total plasma testosterone (nmol/l) (m ± sem): 2 nmoles/rat by oral gavage, blood 2 hours after administration, male rats; for stimulation of testosterone secretion: 5 Ng/kg oral, 2 hours, Figure 3
T1 sequence (P30969 1-327): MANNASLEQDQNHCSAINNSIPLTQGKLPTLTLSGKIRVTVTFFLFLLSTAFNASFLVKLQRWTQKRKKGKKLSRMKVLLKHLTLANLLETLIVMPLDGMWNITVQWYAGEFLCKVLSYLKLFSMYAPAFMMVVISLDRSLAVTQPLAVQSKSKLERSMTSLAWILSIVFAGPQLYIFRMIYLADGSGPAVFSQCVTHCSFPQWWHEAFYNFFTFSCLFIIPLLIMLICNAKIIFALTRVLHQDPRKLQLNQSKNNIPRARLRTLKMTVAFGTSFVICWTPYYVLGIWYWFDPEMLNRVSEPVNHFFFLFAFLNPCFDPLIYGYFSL
Description: For screening purposes, blood samples were drawn 2 hours after oral administration of a common dose of 2 nmoles/rat of LH-RH peptide agonists in an aqueous solution containing 10 or 100 mM of α-CD (Tables 1 and 2; Figures 1, 4 and 6). […] Total plasma testosterone (Diagnostic System Laboratories) and LH (Amersham Pharmacia Biotech) determinations were performed by radioimmunoassay. In screening 2-hour experiments, each group comprised between 6 and 8 rats; each time point of the kinetic study was studied on four animals.
All α-CD derivatives were purchased from Cyclolab (Budapest, Hungary).
(§1) Then, the α-CD solution was added to fill the flask up to 10 ml to make a 2 nmol/ml solution of which 1ml was administered by oral gavage to each rat.
After overnight magnetic stirring at room temperature, each solution was given to rats by oral gavage in a 4 ml/kg volume to administer the same dose of 5 µg/kg of example 2 without or with increasing concentrations of α-CD.

LH-RH receptors [2] = target: T1, LH-RH receptors; assay: stimulation of LH secretion after oral gavage (plasma LH by radioimmunoassay); type: in vivo, Sprague-Dawley rats; set-up: from tissue; host or cells: pituitary of living adult male Sprague-Dawley rats (in vivo); conditions: 2 nmoles/rat by oral gavage, blood 2 hours after administration, male rats
Description: […] […] Total plasma testosterone (Diagnostic System Laboratories) and LH (Amersham Pharmacia Biotech) determinations were performed by radioimmunoassay. In screening 2-hour experiments, each group comprised between 6 and 8 rats; each time point of the kinetic study was studied on four animals.
Two hours after administration, plasma LH levels were measured on eight rats per dose group (Figure 7).
as §1

LH-RH receptors [3] = target: T1, LH-RH receptors; assay: inhibition of ovulation by oral administration (ova in oviduct on day of expected estrus); type: in vivo, Wistar rats; set-up: from tissue; host or cells: pituitary of living adult female Wistar rats (in vivo)
Description: The peptides according to the general formula (I') exert an antagonist activity upon the LH-RH receptors in vivo, resulting in particular in the inhibition of ovulation.
The influence of α-, β- and γ-CD was tested on the activity of antide (an example of LH-RH peptide antagonist) when orally admininisted by gavage to normally cycling adult female Wistar rats between 1:30 and 3:00 p.m. on the day of proestrus, after at least two full regular estrous cycles as monitored by daily vaginal smears. The antiovulatory efficacy was checked the next morning, on the day of expected estrus, by looking for ova in the oviduct of treated females. The presence of at least one ovum attested that some degree of spontaneous ovulation did occur, and only the total absence of ovum was considered as effective LH-RH antagonist-induced inhibition of ovulation. Antide was solubilized in a vehicle consisting of 20% (vol/vol) propylene glycol in water already containing […], to which 10% (wt/vol) of either α-, β- or γ-CD was then added.
Each 5 mg powder vial of antide (from Bachem, Bubendorf, Switzerland) containing 4.2434 mg net peptide was dissolved in a mixture of 2.122 ml propylene glycol with 8.487 ml water containing 0.1% bovine albumin. To each 10.609 ml solution of antide (400 µg/ml), 1.061 g of either α-, β- or γ-CD was directly added to obtain a 10% concentration. Each female rat received the same volume of 1 ml of test formulation by gavage.
The same volume of administration was used for the doses of 200 and 600 µg/rat.

[4] = without α-CD (standard aqueous vehicle)
[5] = vehicle + α-CD (10%), antide 200 µg/rat p.o.
[6] = vehicle + α-CD (10%), antide 400 µg/rat p.o.
[7] = vehicle + α-CD (10%), antide 600 µg/rat p.o.
[8] = vehicle + β-CD (10%), antide 400 µg/rat p.o.
[9] = vehicle + γ-CD (10%), antide 400 µg/rat p.o.
[10] = vehicle only, antide 200 µg/rat p.o.
[11] = vehicle only, antide 400 µg/rat p.o.
[12] = vehicle only, antide 600 µg/rat p.o.

Row | Compound | total plasma testosterone (nmol/l) (m ± sem) (LH-RH receptors [1]; with α-CD (100 mM solution)) | total plasma testosterone (nmol/l) (m ± sem) (LH-RH receptors [1]; [4]) [nmol/L] | total plasma LH (ng/ml) (m ± sem) (LH-RH receptors [2]; with α-CD (100 mM solution)) [ng/mL] | total plasma LH (ng/ml) (m ± sem) (LH-RH receptors [2]; without α-CD) [ng/mL] | further results
1 | goserelin | 66.5 ± 6.19 nmol/L | 21.4 ± 5.99 | – | – | –
2 | deslorelin | marked potency | 9.7 ± 2.41 | – | – | total plasma testosterone (nmol/l) (m ± sem) (LH-RH receptors [1]; with α-CD (100 mM solution), listed as Deslorelin (α-CD)): 48.2 ± 7.29 nmol/L; total plasma testosterone (nmol/l) (m ± sem) (LH-RH receptors [1]; without α-CD (standard aqueous vehicle), listed as deslorelin): inactive
3 | CCNC(=O)[C@@H]1CCCN1C(=O)[C@H](CCCNC(=N)N)NC(=O)[C@H](CC(C)(C)C)NC(=O)[C@@H](C)NC(=O)[C@H](Cc1ccc(O)cc1)NC(=O)[C@H](CO)NC(=O)[C@H](Cc1c[nH]c2ccccc12)NC(=O)[C@H](Cc1c[nH]cn1)NC(=O)[C@@H]1CCC(=O)N1 [Example 2, [D-Ala^6, Npg7, desGly^10-ProNEt^9]LH-RH] | 72.8 ± 4.64 nmol/L | 23.0 ± 8.54 | 19.7 ± 3.70 | 1.6 ± 0.14 | stimulation of testosterone secretion (LH-RH receptors [1]; with 5% (51.4 mM) α-CD): did enhance; stimulation of testosterone secretion (LH-RH receptors [1]; with 10% (103 mM) as well as 14% (144 mM) α-CD): maximal level
4 | CCNC(=O)[C@@H]1CCCN1C(=O)[C@H](CCCNC(=N)N)NC(=O)[C@H](CC(C)(C)C)NC(=O)[C@@H](Cc1ccccc1)NC(=O)[C@H](Cc1ccc(O)cc1)NC(=O)[C@H](CO)NC(=O)[C@H](Cc1c[nH]c2ccccc12)NC(=O)[C@H](Cc1c[nH]cn1)NC(=O)[C@@H]1CCC(=O)N1 [Example 4, [D-Phe^6, Npg7, desGly^10-ProNEt^9]LH-RH] | 67.9 ± 9.11 nmol/L | 30.1 ± 5.86 | 16.1 ± 5.22 | 1.4 ± 0.17 | –
5 | [(S)spirolactam(Pro^6, Npg^7), desGly^10-ProNEt^9]LH-RH [Example 1] | 58.0 ± 8.75 nmol/L | 40.1 ± 6.78 | 7.1 ± 1.68 | 1.5 ± 0.19 | –
6 | antide | – | – | – | – | influence of Beta- and γ-CD on the minimal activity of antide (LH-RH receptors [3]; combined with β- or γ-CD (10%), dose level of 400): no influence; animals showing inhibition of ovulation (LH-RH receptors [3]; out of 22 animals, vehicle only, threshold dose of 400): 3; n ovulations/ N treated rats (LH-RH receptors [3]; [5]): 6/8; percentage of inhibition (LH-RH receptors [3]; [5]): 25%; n ovulations/ N treated rats (LH-RH receptors [3]; [6]): 6/22; percentage of inhibition (LH-RH receptors [3]; [6]): 73%; n ovulations/ N treated rats (LH-RH receptors [3]; [7]): 2/8; percentage of inhibition (LH-RH receptors [3]; [7]): 75%; n ovulations/ N treated rats (LH-RH receptors [3]; [8]): 7/7; percentage of inhibition (LH-RH receptors [3]; [8]): 0%; n ovulations/ N treated rats (LH-RH receptors [3]; [9]): 7/7; percentage of inhibition (LH-RH receptors [3]; [9]): 0%; threshold effective dose by oral administration (LH-RH receptors [3]; vehicle only (no cyclodextrin), inhibition of ovulation): 400 µg/rat; n ovulations/ N treated rats (LH-RH receptors [3]; [10]): 8/8; percentage of inhibition (LH-RH receptors [3]; [10]): 0%; n ovulations/ N treated rats (LH-RH receptors [3]; [11]): 19/22; percentage of inhibition (LH-RH receptors [3]; [11]): 14%; n ovulations/ N treated rats (LH-RH receptors [3]; [12]): 5/8; percentage of inhibition (LH-RH receptors [3]; [12]): 44%

The next lines start with results.

Row | total plasma testosterone (nmol/l) (m ± sem) (LH-RH receptors [1]; with α-CD (100 mM solution)) | total plasma testosterone (nmol/l) (m ± sem) (LH-RH receptors [1]; [4]) [nmol/L] | total plasma LH (ng/ml) (m ± sem) (LH-RH receptors [2]; with α-CD (100 mM solution)) [ng/mL] | total plasma LH (ng/ml) (m ± sem) (LH-RH receptors [2]; without α-CD) [ng/mL] | Compound | further results
7 | 61.9 ± 6.01 nmol/L | 25.8 ± 3.14 | 10.1 ± 2.54 | 1.4 ± 0.10 | triptorelin | –
8 | 52.1 ± 6.99 nmol/L | 15.8 ± 4.24 | 3.2 ± 0.56 | 1.4 ± 0.10 | [Npg^7]triptorelin [Example 5] | –
9 | 61.8 ± 5.10 nmol/L | 28.3 ± 4.56 | – | – | CCNC(=O)[C@@H]1CCCN1C(=O)[C@H](CCCNC(=N)N)NC(=O)[C@H](CC(C)C)NC(=O)[C@@H](C)NC(=O)[C@H](Cc1ccc(O)cc1)NC(=O)[C@H](CO)NC(=O)[C@H](Cc1c[nH]c2ccccc12)NC(=O)[C@H](Cc1c[nH]cn1)NC(=O)[C@@H]1CCC(=O)N1 [Example 6, [D-Ala^6, desGly^10-ProNet^9]LH-RH] | –
